# Experimental data taken from patent US20150148417A1, “SYNTHESIS AND BIOLOGICAL STUDIES OF AN ISOMERIC MIXTURE OF (E/Z) ISOXYLITONES AND ITS ANALOGUES” (priority 2013, published 2015).
# “Also recorded” adds a separate entry of the source.
# How the values were obtained:
# PTZ-induced seizures = assay: Subcutaneous pentylenetetrazole (scPTZ)-induced acute seizure test; type: in vivo, mice; settings: for mortality: acute scPTZ-induced mortality test
# Experimental: Subcutaneous Pentylenetetrazole (scPTZ) Seizure Model (Acute Seizures Model)
# Anticonvulsant effects of isoxylitones using scPTZ acute seizure test was evaluated by administering three doses i.e. 15, 20, and 30 mg/kg to groups of six mice, at least 30-40 min before subcutaneous administration of convulsive doses of PTZ (90 mg/kg). After administering PTZ, the mice were isolated and placed separately in a clear plexiglass chamber and closely observed for an hour for the presence or absence of different types of seizure patterns i.e. onset of body twitches, threshold seizures, generalized seizures with loss of righting reflex, loss of righting reflex with tonic forelimb seizures, loss of righting reflex with tonic forelimb and hind limb seizures (Table 1). The protection from PTZ-induced mortality was also monitored within 24 hours. In all experiments, diazepam (7.5 mg/kg i.p.) was used as a drug control.
# Subcutaneous Pentylenetetrazole-Induced Seizure Test (scPTZ-Induced Acute Seizures Model): […]
# scPTZ-induced kindling = assay: scPTZ-induced chemical kindling model of epileptogenesis; type: in vivo, mice; settings: PTZ 50 mg/kg on alternate days
# Experimental: Once screened in the acute seizure model, we next evaluated the effect of test compound on the development on epilepsy process using chemical kindling model of NMRI mice. […] The kindling was induced according to the modified method of De Sarro [23]. Each treatment group consists of 12 male NMRI mice ranging from 20-25 g. All the groups except normal control were given sub-convulsive dose of PTZ i.e., 50 mg/kg subcutaneously once on alternate day between 9:30-11:00 am. The normal control and drug control groups received daily intraperitoneal dose of saline (0.5 mL of 0.9% NaCl) and diazepam (7.5 mg/kg) respectively. Likewise, the test group was administered with the isoxylitones mixture (30 mg/kg, i.p.) once daily. On the day of PTZ administration, the treatment of saline, diazepam or isoxylitones were given 30-40 minutes before the PTZ. After each PTZ injection, animals were placed in observation chambers for 1 hour, and behavioral seizure activity was rated. Animals were scored according to a pre-validated scoring scale for the severity of the seizure activity they show. Seizure patterns during the gradual development of kindling are classified into five distinct behavioral stages as shown in the Table 1. The cumulative kindling score was then calculated and the experiments were terminated once the PTZ-control group reached the score 5. […]
# BDNF protein expression = assay: BDNF immunohistochemistry in brain samples of chemically kindled mice; type: in vivo; settings: for BDNF immunoreactivity in hippocampus and cortex: vs PTZ kindled group; for cumulative BDNF immunoreactivity (ImageJ): vs PTZ kindling
# Experimental: Brain samples from chemically kindled mice (as described above) were collected immediately after the last treatment of animals with PTZ. Mice were deeply anesthetized and transcardially perfused with ice-cold 50 mL solution containing phosphate buffer saline (PBS) and heparin [1 mL (5000 I.U.) of heparin added for 500 mL of PBS]. Brains were removed from cranial cavity and were gently rinsed in cold PBS. After washing, they were fixed in ice cold 4% paraformaldehyde solution for 24 hr at 4° C. These samples were then placed in a cryoprotectant i.e. 30% sucrose in PBS until they sank to the bottom of the container. The samples were subsequently stored at −80° C. until further processing. Cryostat sagittal sections were prepared using cryostat (Thermo Electron Corporation, UK), frozen brain sections of 30-μm thickness were cut at −20° C. and collected directly on poly-lysine coated slides. At the time of processing, the cryosections were kept overnight in a humid chamber at room temperature containing PBS buffer. […] On the following day, the sections were re-hydrated by rinsing three times (5 min/rinse) with PBS buffer, followed by incubation in blocking solution (pre-filtered with syringe filter of […] size, consisting of 2% bovine serum albumin (BSA), 2% normal goat serum and 0.1% Tween-20) for 30 min at 37° C. For BDNF IHC, the sections were incubated overnight at 4° C. with the BDNF (N-20) primary antibody sc-546 rabbit IgG (Santa Cruz Biotechnology Inc., USA). Following overnight incubation in the primary antibody, sections were washed three times in PBS and then were incubated with secondary antibody, i.e. Alexa Fluor® 546 goat anti-rabbit IgG secondary antibody (1:100 dilution) from Invitrogen (Life Technologies, NY, USA) for 30 min at 37° C. in the dark, followed by a final washing step with PBS. Negative control slides were prepared without primary antibody to rule out the non-specific tissue binding of antibodies. The stained sections were observed under fluorescent microscope (Nikon ECLIPSE TE2000-S).
# The schematic diagrams of brain sections adapted from the mouse brain atlas were used as a visual guide for determining the sub-region boundaries. The image processing program ImageJ (National Institutes of Health, MD, USA) was used to analyze the images. This software helps in multiple imaging system data comparisons, taking density (densitometry) in consideration. For each image, background density was determined and subtracted; the remaining particles were considered to represent BDNF expression. Data were obtained from two sections per […] (n=12 animals per group) and presented as means±S.E.M BDNF immunoreactivity in the amygdala, cortex, dorsal hippocampus and thalamus were centered approximately around 3.6 mm posterior to bregma. Within the hippocampus region, measurements were performed over the layer extending from sub-regions CA1-CA3.
# mice [1] = assay: Inverted screen acute neurotoxicity test; type: in vivo; settings: 15, 20, 30, 50, 100 mg/kg i.p.; 5, 30, 60, 120 minutes
# Experimental: The neurotoxic manifestation of isoxylitone was determined by inverted screen acute neurotoxicity test developed by Coughenour et al. in 1977. The apparatus consisted of six 13 cm square platforms of 0.6 cm wire mesh supported by metal bars mounted on a metal rod. The rod was supported at both ends and was inverted through an arc of 180°. Mice were pretested on the apparatus the day preceding the experiment, and those failing the task were not used for the subsequent drug test. Testing was carried out at 5, 30, 60 and 120 minutes following i.p. administration of 15 mg/kg, 20 mg/kg, 30 mg/kg, 50 mg/kg and 100 mg/kg of isoxylitone in groups of 6 mice. Mice unable to climb to an upright position for 1 min duration were rated as failures.
# mice [2] = assay: Behavioral analysis (Turner scoring); type: in vivo; settings: 30 mg/kg, 50 mg/kg and 100 mg/kg
# Experimental: The behavioral analysis was performed adopting the modified procedure as described by Turner, 1972. The effects were recorded using a scoring system (scores were allocated according to the intensity of the symptoms from 0-4) as described by Turner i.e. for stereotype behavior 0: no effect; 1: intermittent; 2: continues 3: intense; 4: severe and for spontaneous activity 0: reduced activity; and 4: increased activity. Animals were transferred into individual cages to allow them to acclimatize to the new environment prior to the experiment.
# Blind-testing was employed i.e., the experimenter conducting this study was blinded to the treatment given to the animals in order to avoid any biased interpretations.
# mice [3] = assay: Acute toxicity (Lorke's test) with gross behavioral observation; type: in vivo
# Experimental: The isoxylitone was tested for acute toxicity (LD50) using Lorke's test. This method provides the acute toxicity data with the least consumption of animals i.e. initially only 12 animals are required; on obtaining the dose causing the death in 50% animals further three more animals is used at the same dose to get the data statistically significant. Briefly, animals were given different doses of isoxylitone i.e., 50 mg/kg, 75 mg/kg, 100 mg/kg, 500 mg/kg and 1000 mg/kg. After 24 and 48 hours, the maximum dose that had not induced mortality was considered as the maximum non-fatal dose. LD50 values and the corresponding confidence intervals were determined by the Litchfield and Wilcoxon methods (SPSS, version, USA). Data were expressed as mean values±SEM and tested with ANOVA and Tukey-Kramer tests.
# They were observed continuously for 2 hours after administration of the test compounds and then every 30 minutes for next 3 hours and finally after 24 hours. The CNS stimulation was judged by the following signs and symptoms:
# Locomotor activity, ataxia, clonic & tonic convulsions, sedation, catalepsy, crouching, lacrimation, salivation or any other signs which deviate from the normal behavior of the animal under observation.
# SD rats = assay: Repeated daily dosing toxicity study, 15, 30 and 90 days; type: in vivo; settings: 30 mg/kg daily
# Experimental: The effective dose of isoxylitones i.e. 30 mg/kg was used in this study. The test was performed in SD rats. The animals divided into three groups and were daily administered with isoxylitones. The first group was sacrificed at the end of 15 days. The second group was sacrificed after 30 days and third group was sacrificed after 90 days. […] At the end, blood was taken via cardiac puncture for biochemistry. Gross anatomical observations were also made for organs as liver, spleen, kidney, heart, and lung and spleen and to examine the organ abnormalities.
# The serum levels total bilirubin, GPT, GOT, alkaline phosphatase, and LDH was estimated.
# [4] = system: c-Fos protein and mRNA expression; assay: c-Fos protein and mRNA expression in brain samples of kindled mice; type: in vivo; settings: 30 mg/kg; compared to PTZ-kindled control animals
# Source text: Recently we have evaluated the effects of novel anticonvulsant isomeric compounds isoxylitones on the c-Fos protein and mRNA expression in the brain samples of kindled mice and compared it with the normal and untreated kindled groups.
# [5] = isoxylitones 15 mg/kg i.p. before PTZ 90 mg/kg s.c.
# [6] = isoxylitones 20 mg/kg i.p. before PTZ 90 mg/kg s.c.
# [7] = isoxylitones 30 mg/kg i.p. before PTZ 90 mg/kg s.c.
# [8] = diazepam 7.5 mg/kg i.p. before PTZ 90 mg/kg s.c.
compound,measurement,setting,value
isoxylitones,protection from PTZ-induced loss of righting reflex with tonic-forelimb and tonic hind-limb seizures,PTZ-induced seizures; 30 mg/kg,100%
same,prevention of PTZ-induced myoclonic twitches,PTZ-induced seizures; 15 and 20 mg/kg,effectively prevent PTZ-induced myoclonic twitches
same,protection from PTZ-induced seizure threshold,PTZ-induced seizures; 15 and 20 mg/kg,unable to provide complete protection
same,anticonvulsant activity in vivo models,PTZ-induced seizures; compounds shown in FIG. 1,strong anticonvulsant activity
same,Onset of jerks,"PTZ-induced seizures; isoxylitones 15 mg/kg i.p. 40-50 min before PTZ 90 mg/kg s.c., mean ± SEM",440 ± 55 s
same,Hind Limb Tonic Extension (HLTE),PTZ-induced seizures; [5],1260 ± 20 s
same,Mortality protection,PTZ-induced seizures; [5],66.7%
same,Rearing & falling,PTZ-induced seizures; [5],990 ± 33 s
same,mortality,PTZ-induced seizures; isoxylitones 15 mg/kg,33.3%
same,Hind Limb Tonic Extension (HLTE),PTZ-induced seizures; [6],0 s
same,Mortality protection,PTZ-induced seizures; [6],100%
same,Onset of jerks,PTZ-induced seizures; [6],580 ± 21 s
same,Rearing & falling,PTZ-induced seizures; [6],1120 ± 40 s
same,mortality,PTZ-induced seizures; isoxylitones 20 mg/kg,20.8%
same,Hind Limb Tonic Extension (HLTE),PTZ-induced seizures; [7],0 s
same,Mortality protection,PTZ-induced seizures; [7],100%
same,Onset of jerks,PTZ-induced seizures; [7],900 ± 150 s
same,Rearing & falling,PTZ-induced seizures; [7],0 s
same,mortality,PTZ-induced seizures; isoxylitones 30 mg/kg,0%
same,"protection from different seizure patterns of PTZ-induced seizures (twitches, body jerks, clonus, generalized seizure)","PTZ-induced seizures; isoxylitones given prior to PTZ, 15, 20, 30 mg/kg",dose-related protection
same,development of kindling (seizure score),"scPTZ-induced kindling; isoxylitones 30 mg/kg i.p. once daily, 18 doses, 34 days",did not exhibit seizure score until the end of the kindling experiment; also recorded: complete inhibition in the development of kindling
same,BDNF immunoreactivity in hippocampus and cortex,BDNF protein expression; isoxylitones 30 mg/kg,returned the enhanced BDNF immunoreactivity from PTZ kindling to the normal control levels
same,BDNF immunoreactivity in hippocampus and cortex,"BDNF protein expression; isoxylitones 30 mg/kg, listed as isoxylitones",returned the BDNF levels to normal levels
same,cumulative BDNF immunoreactivity (ImageJ),BDNF protein expression; isoxylitones 30 mg/kg,significantly suppressed
same,acute neurotoxicity (motor function),mice [1],did not show sign of acute neurotoxicity
same,"spontaneous motor activity and behavioral signs (ataxia, abdominal contractions, emesis, hyper-excitability, hyper-locomotion, twitches)",mice [2],no alteration in the spontaneous motor activity
same,signs of toxicity / gross behavioral effects,"mice [3]; 250 mg/kg, approximately 20 minutes after injection",mild cramps and abdominal stretching
same,signs of toxicity / gross behavioral effects,mice [3]; 500 mg/kg,"signs of discomfort and mild toxicity; also recorded: Ataxia, complete sedation and drowsiness"
same,signs of toxicity / gross behavioral effects,mice [3]; 1000 mg/kg,complete ataxia and sedation
same,animals showing signs of toxicity or altered behavior,"mice [3]; 50 and 100 mg/kg, over 24 hours",None of the animals
same,mortality or morbidity,SD rats,No mortality or morbidity
same,c-Fos expression,[4],significant reduction of c-Fos expression
"CN1C(=O)CN=C(c2ccccc2)c2cc(Cl)ccc21 [Diazepam, diazepam, reference compound]",Hind Limb Tonic Extension (HLTE),PTZ-induced seizures; [8],0 s
same,Mortality protection,PTZ-induced seizures; [8],100%
same,Onset of jerks,PTZ-induced seizures; [8],850 ± 20 s
same,Rearing & falling,PTZ-induced seizures; [8],0 s
same,development of kindling (seizure pattern),scPTZ-induced kindling; diazepam 7.5 mg/kg daily,did not exhibit any seizure pattern till the end of the kindling protocol
same,BDNF immunoreactivity in hippocampus and cortex,BDNF protein expression; diazepam 7.5 mg/kg,reduced the levels to controls; also recorded: markedly reduced the immunoreactivity
same,cumulative BDNF immunoreactivity (ImageJ),BDNF protein expression; diazepam 7.5 mg/kg,significantly suppressed
